{"source": "patent EP0250254A1", "about": "“Cis & trans stilbenes and their composition for the treatment of hypertension” (McNeilab, Inc., priority 1986, dated 1987)", "key": {"[1]": {"test_system": "spontaneously hypertensive rats", "test": "Spontaneously Hypertensive Rat (SHR) test, arterial pressure monitored via aortic cannula", "format": "in vivo", "details": "SH rats", "method": "The activity of compounds of formula (I) for the treatment of hypertension was determined using the Spontaneously Hypertensive Rat (SHR) test as described below.\nIn this test, the arterial pressure of adult spontaneously hypertensive rats (Charles River) is monitored directly via an aortic cannula. The SH rats are anesthetized with an intravenous anesthetic (methohexital). The left carotid artery is isolated and cannulated. The tip of the cannula is advanced to the aorta and the cannula is exteriorized behind the neck at the level of the scapula. Animals are placed in individual cages and allowed to recover from the anesthetic and are kept unrestrained. The arterial cannula is connected to the pressure transducer which is attached to the recorder. The test compounds are administered to at least 3 rats at doses selected in the range of 0.l to l00 mg/kg of body weight by intraperitoneal (i.p.) or oral (p.o.) routes of administration. The arterial pressure and heart rate are monitored for a minimum of 22 hours. A test compound is considered to be active as an antihypertensive agent if the mean arterial pressure (MAp) indicates a fall of >l5 mm of Hg. Each animal serves as its own control.\nThe results of this test for compounds of formula (I). expressed as \"Max Fall Bp\" (Maximum Fall in Mean Arterial pressure) are shown in Table I."}, "[2]": {"test_system": "coronary arteries", "test": "Langendorff's isolated heart preparation, increase in coronary flow", "details": "read-out: EC30 (minimum concentration needed to elicit a 30 percent increase in coronary flow)", "method": "In addition to their utility in the treatment of hypertension, the compounds of formula (I) are useful in the treatment of the symptoms of angina pectoris by virtue of their ability to dilate coronary arteries. Their activity was measured using the \"Langendorff's isolated heart\" preparation. This test has been described in \"Pharmacological Experiments on Isolated Preparations\", Staff of the Department of Pharmacology, University of Edinborough, 2nd Ed., Churchill Livingstone, N.Y., l970, pp. ll2-ll9. The test compounds were administered at concentrations of 3000, l000, 300, l00, 30, l0, 3, l and 0.3 nanomolar (l0⁻⁹ molar).\nThe minimum concentration (EC₃₀) needed to elicit a 30 percent increase in coronary flow is shown in Table I for compounds of the formula (I) with […]."}, "[3]": {"details": "dose 30 mg/kg of body weight p.o., salt form tested per footnotes"}}, "note": "Where a name gives a salt, the structure may show the parent alone. Read-outs that look alike come from different tables or passages of the source. Marks after values point to notes of the source that are not given here.", "data": [{"smiles": "COc1ccc(/C=C/c2ccccc2)c(CC(C)NCCc2ccc(OC)c(OC)c2)c1", "note": "(stereo not drawn) [Example 8b, N-[2-(3,4-Dimethoxyphenyl)ethyl]-5-methoxy-α-methyl-2E-(2-phenylethenyl)benzeneethanamine Hydrochloride]", "values": [{"measurement": "Max Fall BP (Maximum Fall in Mean Arterial pressure)", "setting": "[1]; dose 10 mg/kg of body weight p.o., tested as the chloride salt", "result": "80 (10) mm of Hg"}, {"measurement": "Max Fall BP (Maximum Fall in Mean Arterial pressure)", "setting": "[1]; [3]", "result": "77 (30) mm of Hg"}, {"measurement": "EC30", "setting": "[2]; salt form tested per footnotes", "result": 0.001, "unit": "µM"}]}, {"smiles": "COc1ccc(/C=C/c2ccccc2)c(CCCN(C)CCc2ccc(OC)c(OC)c2)c1", "note": "[Example 7e, N-[2-(3,4-Dimethoxyphenyl)ethyl]-5-methoxy-N-methyl-2E-(2-phenylethenyl)benzenepropanamine Biscyclohexylsulfamate]", "values": [{"measurement": "Max Fall BP (Maximum Fall in Mean Arterial pressure)", "setting": "[1]; [3]", "result": "16 (30) mm of Hg"}, {"measurement": "EC30", "setting": "[2]; salt form tested per footnotes", "result": 0.0004, "unit": "µM"}]}, {"smiles": "COc1ccc(/C=C\\c2ccccc2)c(CCC(C)N(C)CCc2ccc(OC)c(OC)c2)c1", "note": "(stereo not drawn) [Example 6e, N-[2-(3,4-Dimethoxyphenyl)ethyl]-5-methoxy-N,α-dimethyl-2Z-(2-phenylethenyl)benzenepropanamine (E)-2-Butenedioate (2:l)]", "values": [{"measurement": "Max Fall BP (Maximum Fall in Mean Arterial pressure)", "setting": "[1]; [3]", "result": "17 (30) mm of Hg"}, {"measurement": "EC30", "setting": "[2]; salt form tested per footnotes", "result": 0.019, "unit": "µM"}]}, {"smiles": "COc1ccc(/C=C\\c2ccccc2)c(CC(C)NCCc2ccc(OC)c(OC)c2)c1", "note": "(stereo not drawn) [Example 4c, N-[2-(3,4-Dimethoxyphenyl)ethyl]-5-methoxy-α-methyl-2Z-(2-phenylethenyl)benzeneethanamine Hydrochloride]", "values": [{"measurement": "Max Fall BP (Maximum Fall in Mean Arterial pressure)", "setting": "[1]; [3]", "result": "21 (30) mm of Hg"}, {"measurement": "EC30", "setting": "[2]; salt form tested per footnotes", "result": 0.002, "unit": "µM"}]}, {"smiles": "COc1ccc(/C=C\\c2ccccc2)c(CC(C)NCCc2c(Cl)cccc2Cl)c1", "note": "(stereo not drawn) [Example 2d, N-[2-(2,6-Dichlorophenyl)ethyl]-5-methoxy-α-methyl-2Z-(2-phenylethenyl)benzeneethanamine (E)-2-Butenedioate (2:l)]", "values": [{"measurement": "Max Fall BP (Maximum Fall in Mean Arterial pressure)", "setting": "[1]; [3]", "result": "18 (30) mm of Hg"}, {"measurement": "EC30", "setting": "[2]; salt form tested per footnotes", "result": 0.055, "unit": "µM"}]}, {"smiles": "COc1ccc(/C=C/c2ccccc2)c(CCC(C)N(C)CCc2ccc(OC)c(OC)c2)c1", "note": "(stereo not drawn) [Example 5, N-[2-(3,4-Dimethoxyphenyl)ethyl]-5-methoxy-N,α-dimethyl-2E-(2-phenylethenyl)benezenepronanamine Hydrochloride]", "values": [{"measurement": "Max Fall BP (Maximum Fall in Mean Arterial pressure)", "setting": "[1]; [3]", "result": "43 (30) mm of Hg"}, {"measurement": "EC30", "setting": "[2]; salt form tested per footnotes", "result": 0.012, "unit": "µM"}]}, {"smiles": "COc1cc(CCNC(C)Cc2cc(OC)ccc2/C=C\\c2ccccc2)cc(OC)c1", "note": "(stereo not drawn) [Example 3c, N-[2-(3,5-Dimethoxyphenyl)ethyl]-5-methoxy-α-methyl-2Z-(2-phenylethenyl)benzeneethanamine (E)-2-Butenedioate (2:l)]", "values": [{"measurement": "Max Fall BP (Maximum Fall in Mean Arterial pressure)", "setting": "[1]; dose 10 mg/kg of body weight given i.p., tested as the fumarate salt", "result": "38 (10)^b mm of Hg"}, {"measurement": "EC30", "setting": "[2]; salt form tested per footnotes", "result": 0.057, "unit": "µM"}]}, {"smiles": "COc1ccc(/C=C/c2ccccc2)c(CC(C)NCCc2ccc(Cl)c(Cl)c2)c1", "note": "(stereo not drawn) [Example 9, N-[2-(3,4-Dichlorophenyl)ethyl)-5-methoxy-α-methyl-2E-(2-phenylethenyl)benzeneethanamine Hydrochloride]", "values": [{"measurement": "Max Fall BP (Maximum Fall in Mean Arterial pressure)", "setting": "[1]; [3]", "result": "90 (30) mm of Hg"}, {"measurement": "EC30", "setting": "[2]; salt form tested per footnotes", "result": 0.024, "unit": "µM"}]}, {"smiles": "COc1cc(CCNC(C)Cc2cc(OC)ccc2/C=C/c2ccccc2)cc(OC)c1", "note": "(stereo not drawn) [Example 10, N-[2-(3,5-Dimethoxyphenyl)ethyl]-5-methoxy-α-methyl-2E-(2-phenylethenyl)benzeneethanamine (E)-2-Butendioate (3:5)]", "values": [{"measurement": "Max Fall BP (Maximum Fall in Mean Arterial pressure)", "setting": "[1]; [3]", "result": "53 (30)* mm of Hg"}, {"measurement": "EC30", "setting": "[2]; tested as free base", "result": 0.001, "unit": "µM"}]}]}
